Results reported in paper PMC12799407, “Differential RELA and GR recruitment to the BIRC3/BIRC2 locus: Molecular insight as to combinatorial regulation by proinflammatory cytokines and glucocorticoid” (Molecular Pharmacology, 2025).
Where “and” joins values, the source holds several entries; their conditions need not be identical. Equal values may be shown once. Read-outs that look alike come from different tables or passages of the source.

Key:
R2 reporter = assay: R2 luciferase reporter (BIRC3/BIRC2 locus) stably transfected in A549 cells; format: cell-based, human; conditions: for EC50: A549, 6 h; for pA2 (Schild analysis): Org34517 1 μM
Method: Data were assumed to be normally distributed and, unless otherwise indicated, are presented as means ± SD with scatterplots showing individual values. […] Multiple comparisons were made using one-way ANOVA with Tukey’s or Dunnett’s post hoc tests, as appropriate. Comparisons between 2 groups were performed by 2-tailed, paired Student’s t test. The number of independent experiments (N) is indicated in each graph and, being exploratory, sample sizes were not prespecified. […] Heat maps were generated using the R package “pheatmap.” Concentration-response relationships were fitted using the 4-parameter model that assumed symmetric variance or using the Gaddum-Schild model of competitive antagonism, as described previously.[43] Variance in pEC50, EMax, or pA2 are provided by Prism as mean ±SE, whereas all curves are plotted as means ±SD (but without scatterplots). Because all analyses were exploratory and were not designed to test prespecified statistical null hypotheses, stated P values should be viewed as being descriptive rather than as hypothesis testing.

R5 reporter = assay: R5 luciferase reporter stably transfected in A549 cells; format: cell-based, human; conditions: for EC50: Homo sapiens
Method: (§2) Data were assumed to be normally distributed and, unless otherwise indicated, are presented as means ± SD with scatterplots showing individual values. With the exception of pEC50 values, numerical values in tables and text are provided to one decimal place, or where appropriate 2 significant figures of accuracy. […] Multiple comparisons were made using one-way ANOVA with Tukey’s or Dunnett’s post hoc tests, as appropriate. Comparisons between 2 groups were performed by 2-tailed, paired Student’s t test. The number of independent experiments (N) is indicated in each graph and, being exploratory, sample sizes were not prespecified. […] GraphPad Prism software (version 11; Dotmatics) and/or the R package “ggplot2” was used for graph plotting and statistical analyses. Heat maps were generated using the R package “pheatmap.” Concentration-response relationships were fitted using the 4-parameter model that assumed symmetric variance or using the Gaddum-Schild model of competitive antagonism, as described previously.[43] Variance in pEC50, EMax, or pA2 are provided by Prism as mean ±SE, whereas all curves are plotted as means ±SD (but without scatterplots).

GR recruitment to FKBP5 = assay: ChIP-qPCR of GR recruitment to FKBP5 in A549 cells; format: cell-based, human; conditions: budesonide 300 nM, 1 hour
Method: (§3) After cell treatments, formaldehyde (PI28906, Thermo Fisher Scientific) was added to a final concentration of 1% for 10 minutes. […] Following cytoplasmic and then nuclear lysis, lysates were sonicated with 30 high-power bursts in a 30 seconds on-off cycle at 4 °C using a Bioruptor (Diagenode). Antibodies: GR, GR-356,[36] RELA (NF-κB p65, D14E12, #8242, Cell Signaling Technologies); RNA polymerase 2 (RNAP2) (Rpb1 NTD D8L4Y, #14958, Cell Signaling Technologies) used for ChIP were preincubated with protein G magnetic Dynabeads (10004D, Thermo Fisher Scientific) overnight at 4 °C and beads were washed as previously described. Nuclear lysates were then incubated with the antibody-coated beads overnight prior to extensive washing. Following reversal of crosslinks, DNA was purified with a ChIP DNA Clean & Concentrator kit (D5205, Zymo Research). Fast SYBR Green Master Mix (Thermo Fisher Scientific) was used in standard quantitative polymerase chain reaction (qPCR) reactions to detect DNA regions of interest. […] Relative occupancy at each region was calculated as ΔΔ threshold cycle (CT) after normalization to the geometric mean of the threshold cycle values for 3 negative control regions (Gene symbols: OLIG3, MYOD1, and MYOG).

R8 reporter [1] = assay: R8 luciferase reporter stably transfected in A549 cells; conditions: for EC50 / inhibition at 30 µM: Homo sapiens; for EC50: A549, read-out: pEC50, R8 reporter (converted), Schild experiments (Fig. 7D); for inhibition at 30 µM: A549, read-out: inhibition of IL-1β-plus-dexamethasone-induced R8 reporter activity
Method: as §2

R4 reporter = assay: R4 luciferase reporter stably transfected in A549 cells; format: cell-based, human; conditions: for EC50: Homo sapiens, A549, read-out: EC50, inhibition of IL-1β-induced R4 reporter activity
Method: as §2

BIRC3 mRNA = assay: qPCR of BIRC3 mRNA in A549 cells; format: cell-based, human; conditions: for EC50: Homo sapiens, A549, 2 h, IL-1β-induced BIRC3 mRNA, 2 h; for repression of IL-1β-induced BIRC3 mRNA: at 30 μM, IL-1β 2 h
Method: (§1) Following treatments, total RNA was extracted and 500 ng used for cDNA synthesis according to standard procedures.[34] After 1:5 dilution, cDNA (2.5 μL) was analyzed by qPCR (StepOnePlus, Applied […] or QuantStudio3, Thermo Fisher Scientific) with Fast SYBR Green Master Mix (4385618, Thermo Fisher Scientific). Amplification conditions and primers specific for BIRC3, BIRC2, and glyceraldehyde-3-phosphate dehydrogenase mRNAs were as described.[9] In each case, relative cDNA concentrations were obtained from standard curves generated by serial dilution of a stimulated cDNA sample that was analyzed in parallel with the experimental samples. Primer specificity was assessed by melt curve analysis where a single peak in the change of fluorescence with temperature was taken to indicate specificity.

BIRC2 mRNA = assay: qPCR of BIRC2 mRNA in A549 cells; format: cell-based, human; conditions: for effect on IL-1β-induced BIRC2 mRNA expression: concentration series, IL-1β 2 h (Fig. 6C)
Method: as §1

R8 reporter [2] = tested on: R8 reporter
Method: as §2

NF-κB reporter = tested on: NF-κB reporter; design: method as in PMID 17322026, PMID 37863662, PMID 38941070; conditions: read-out: EC50, inhibition of IL-1β-induced NF-κB reporter activity; cited from earlier work
R7 reporter = assay: R7 luciferase reporter stably transfected in A549 cells; format: cell-based, human
Method: as §2

R0 reporter = assay: R0 luciferase reporter stably transfected in A549 cells; format: cell-based, human; conditions: IL-1β 1 ng/mL, 6 h (Fig. 3B,C)
Method: as §2

R3 reporter = assay: R3 luciferase reporter stably transfected in A549 cells; format: cell-based, human; conditions: IL-1β 1 ng/mL, 6 h (Fig. 3B,C)
Method: Data were assumed to be normally distributed and, unless otherwise indicated, are presented as means ± SD with scatterplots showing individual values. […] Multiple comparisons were made using one-way ANOVA with Tukey’s or Dunnett’s post hoc tests, as appropriate. Comparisons between 2 groups were performed by 2-tailed, paired Student’s t test. The number of independent experiments (N) is indicated in each graph and, being exploratory, sample sizes were not prespecified. […] GraphPad Prism software (version 11; Dotmatics) and/or the R package “ggplot2” was used for graph plotting and statistical analyses. Heat maps were generated using the R package “pheatmap.” Concentration-response relationships were fitted using the 4-parameter model that assumed symmetric variance or using the Gaddum-Schild model of competitive antagonism, as described previously.[43] Variance in pEC50, EMax, or pA2 are provided by Prism as mean ±SE, whereas all curves are plotted as means ±SD (but without scatterplots).

[3] = tested on: RELA recruitment to CXCL8; assay: ChIP-qPCR of RELA recruitment to CXCL8 in A549 cells; format: cell-based, human; conditions: IL-1β 1 ng/mL, 1 hour
Method: as §3

[4] = Homo sapiens, R2 reporter, glucocorticoid + IL-1β (1 ng/mL), 6 h
[5] = Homo sapiens, R2 reporter, glucocorticoid, naïve, 6 h
[6] = A549, 6 h, R5 reporter, glucocorticoid + IL-1β (1 ng/mL), 6 h
[7] = A549, 6 h, R5 reporter, glucocorticoid, naïve, 6 h
[8] = R5 reporter, glucocorticoid + IL-1β (1 ng/mL), % of 1 μM dexamethasone, 6 h
[9] = R5 reporter, glucocorticoid, naïve, expressed as % of 1 μM dexamethasone, 6 h
[10] = R5 reporter, IL-1β, naïve, n.r. = no significant response
[11] = R8 reporter, IL-1β, naïve (Table 1), n.r. = no significant response
[12] = R8 reporter, IL-1β, naïve, budesonide series (Supplemental Table 1), n.r. = no significant response

CCCC1O[C@@H]2C[C@H]3[C@@H]4CCC5=CC(=O)C=C[C@]5(C)[C@H]4[C@@H](O)C[C@]3(C)[C@]2(C(=O)CO)O1 (some centres unmarked) [Budesonide, budesonide]
EC50 (R2 reporter; [4]): 5.89 nM
EC50 (R2 reporter; [5]): 3.47 nM
EMax (Fold ± SE) (R2 reporter; R2 reporter, glucocorticoid + IL-1β (1 ng/mL), 6 h): 3.3 Fold
EMax (Fold ± SE) (R2 reporter; R2 reporter, glucocorticoid concentration-response, naïve, 6 h): 2.4 Fold
EC50 (R5 reporter; [6]): 12.3 nM
EC50 (R5 reporter; [7]): 6.61 nM
EMax (% of 1 μM dexamethasone ± SE) (R5 reporter; [8]): 9.3%
EMax (% of 1 μM dexamethasone ± SE) (R5 reporter; [9]): 92.2%
recruitment of GR to FKBP5, fold (GR recruitment to FKBP5): 240 ± 150 fold
EMax (Fold ± SE) (R8 reporter [1]; R8 reporter, glucocorticoid + IL-1β (1 ng/mL), 6 h): 16.2 Fold
EMax (Fold ± SE) (R8 reporter [1]; R8 reporter, glucocorticoid, naïve, 6 h): 2.2 Fold

C[C@@H]1C[C@H]2[C@@H]3CCC4=CC(=O)C=C[C@]4(C)[C@@]3(F)[C@@H](O)C[C@]2(C)[C@@]1(O)C(=O)CO [Dexamethasone, dexamethasone]
EC50 (R2 reporter; [4]): 10.2 nM
EC50 (R2 reporter; [5]): 8.51 nM
EC50 (R5 reporter; [6]): 10 nM
EC50 (R5 reporter; [7]): 11.5 nM
EC50 (R5 reporter; A549, R5 reporter, dexamethasone, Schild experiments (Fig. 7C), read-out: pEC50 (converted)): 11.7 nM
EMax (% of 1 μM dexamethasone ± SE) (R5 reporter; [8]): 16.3% ± 1.8
EMax (% of 1 μM dexamethasone ± SE) (R5 reporter; [9]): 101% ± 2
EC50 (R8 reporter [1]; dexamethasone alone): 10.7 nM
EC50 (R8 reporter [1]; dexamethasone in the presence of IL-1β): 8.32 nM

COc1c(Cl)cc2c([nH]c3cnccc32)c1NC(=O)c1cccnc1C.Cl.Cl [ML120B, N-(6-Chloro-7-methoxy-9H-pyrido[3,4-b]indol-8-yl)-2-methyl-3-pyridinecarboxamide dihydrochloride]
reduction in reporter activity in the presence of IL-1β (R2 reporter): 27.8%
reduction in reporter activity induced by dexamethasone (R2 reporter): 34.0%
EC50 (R4 reporter): ≥ 30000 nM
EC50 (BIRC3 mRNA): 2950 nM
repression of IL-1β-induced BIRC3 mRNA (BIRC3 mRNA): ~54%
EC50 (BIRC2 mRNA; Homo sapiens, A549, 2 h): 10500 nM
effect on IL-1β-induced BIRC2 mRNA expression (BIRC2 mRNA): partial repressive effect
EC50 (R8 reporter [2]): 10000 nM
EC50 (NF-κB reporter): 8200 nM
inhibition at 30 µM (R8 reporter [1]): > 75%

CC#C[C@]1(O)CCC2C3CCC4=CC(=O)CCC4=C3[C@@H](c3ccc4c(c3)OCO4)C[C@@]21C (some centres unmarked) [Org34517]
pA2 (Schild analysis) (R2 reporter; R2 reporter, antagonism of dexamethasone + IL-1β): 7.99
pA2 (Schild analysis) (R2 reporter; R2 reporter, antagonism of dexamethasone, consistent with antagonism at GR): 7.71
effect on induced R4 reporter activity (R4 reporter; Org34517 1 μM, P ≤ .05 and .01): reduced
dexamethasone-induced luciferase activity in the presence of Org34517, fold (R5 reporter; R5 reporter, Org34517 1 μM, dexamethasone 1 μM): 1.7 fold
pA2 (Schild analysis) (R5 reporter; R5 reporter, antagonism of dexamethasone, Org34517 1 μM): 8.33 ±0.14
IL-1β-plus-dexamethasone-induced reporter activity in the presence of Org34517, fold (R8 reporter [1]; R8 reporter, Org34517 1 μM): 6.3 fold
dexamethasone-induced reporter activity in the presence of Org34517, fold (R8 reporter [1]; R8 reporter, Org34517 1 μM, dexamethasone 1 μM): 1.4 fold
pA2 (Schild analysis) (R8 reporter [1]; R8 reporter, antagonism of dexamethasone + IL-1β, Org34517 1 μM): 8.14 ± 0.11
pA2 (Schild analysis) (R8 reporter [1]; R8 reporter, antagonism of dexamethasone, Org34517 1 μM): 8.14 ± 0.11

O=C(Nc1cc(Cl)cc2c1[nH]c1cnccc12)c1cccnc1 [PS-1145, N-(6-chloro-9h-pyrido[3,4-b]indol-8-yl)-3-pyridinecarboxamide]
inhibition of IL-1β-plus-dexamethasone-induced reporter activity (R2 reporter; R2 reporter, inhibitor 30 μM (Fig. 6A)): unaffected
reduction in reporter activity induced by dexamethasone (R2 reporter; R2 reporter, inhibitor 30 μM, dexamethasone 1 μM (Fig. 6A)): unaffected
reduction of dexamethasone-induced R4 reporter activity (R4 reporter; inhibitor 30 μM, dexamethasone 1 μM): 24.5%
EC50 (BIRC3 mRNA): 2750 nM
repression of IL-1β-induced BIRC3 mRNA (BIRC3 mRNA): ~54%
effect on IL-1β-induced BIRC2 mRNA expression (BIRC2 mRNA): no effect on IL-1β-induced expression until a concentration of 100 μM
EC50 (NF-κB reporter): 1000 to 2000 nM
inhibition at 30 µM (R8 reporter [1]): > 60%

NC(=O)Nc1sc(-c2ccc(F)cc2)cc1C(N)=O [TPCA-1, 2-[(aminocarbonyl)amino]-5-(4-fluorophenyl)-3-thiophenecarboxamide]
inhibition at 30 µM (R2 reporter; Homo sapiens, A549, read-out: inhibition of IL-1β-plus-dexamethasone-induced reporter activity): 56%
EC50 (R4 reporter): 2600 nM
repression of IL-1β-induced BIRC3 mRNA (BIRC3 mRNA): near complete inhibition
effect on IL-1β-induced BIRC2 mRNA expression (BIRC2 mRNA): below 10 μM, TPCA-1 was without effect
EC50 (NF-κB reporter): 2000 nM
inhibition of IL-1β-plus-dexamethasone-induced R8 reporter activity (R8 reporter [1]; inhibitor 30 μM): complete inhibition

IL-1β: Recombinant human IL-1β (R&D Systems), proinflammatory cytokine
EMax (Fold ± SE) (R2 reporter; R2 reporter, IL-1β + dexamethasone (1 μM), 6 h): 3.8 ± 0.2 Fold
reporter activity, fold (R2 reporter; R2 reporter, IL-1β at 1 ng/mL in the presence of dexamethasone (1 μM) (Fig. 3F)): 4.0 ± 1.1 fold
EMax (Fold ± SE) (R2 reporter; R2 reporter, IL-1β concentration-response, naïve, n.r. = no significant response): n.r.
pEC50 (−log[g/ mL] ± SE) (R2 reporter; R2 reporter, IL-1β, naïve, n.r. = no significant response): n.r.
EMax (Fold ± SE) (R4 reporter; R4 reporter, IL-1β + Budesonide (300 nM)): 4.8 Fold
EMax (Fold ± SE) (R4 reporter; R4 reporter, IL-1β + dexamethasone (1 μM), 6 h): 4.3 ± 0.1 Fold
EMax (Fold ± SE) (R4 reporter; R4 reporter, IL-1β, naïve, 6 h (Table 1)): 3.5 ± 0.1 Fold
EMax (Fold ± SE) (R4 reporter; R4 reporter, IL-1β, naïve, budesonide series (Supplemental Table 1)): 3.6 Fold
reporter activity, fold of no stimulation ± SD (R4 reporter; R4 reporter, dexamethasone 1 μM, IL-1β 1 ng/mL or both, 6 h (Fig. 3C)): 3.3 ± 1.9 fold
reporter activity, fold of not stimulated (R4 reporter; R4 reporter, naïve cells, dexamethasone 1 μM, IL-1β 1 ng/mL or both, 6 h (Fig. 5C)): 2.8 ± 0.7 fold
EMax (% of 1 μM dexamethasone ± SE) (R5 reporter; R5 reporter, IL-1β + dexamethasone (1 μM): inhibition of dexamethasone-induced activity, % of 1 μM dexamethasone): 15.1% ± 3.1
EMax (R5 reporter; [10]): n.r.
pEC50 (−log[g/ mL] ± SE) (R5 reporter; [10]): n.r.
reporter inducibility, fold (R7 reporter; IL-1β 1 ng/mL (Fig. 6A)): 2.3 fold
reporter inducibility, fold (R7 reporter; IL-1β 1 ng/mL, 6 h (Fig. 5C)): 2.0 ± 0.9 fold
reporter activity, fold of no stimulation ± SD (R7 reporter; dexamethasone 1 μM, IL-1β 1 ng/mL or both, 6 h (Fig. 3C)): 2.0 ± 0.7 fold and 2.0 fold
reporter activity, fold of no stimulation ± SD (R0 reporter): 1.6 ± 0.5 fold
reporter activity, fold of no stimulation ± SD (R3 reporter): 1.4 ± 0.3 fold
recruitment of RELA to CXCL8, fold [3]: 48 ± 11 fold
EMax (Fold ± SE) (R8 reporter [1]; R8 reporter, IL-1β + Budesonide (300 nM)): 9.3 Fold
EMax (Fold ± SE) (R8 reporter [1]; R8 reporter, IL-1β + dexamethasone (1 μM), 6 h): 16.5 ± 1.0 Fold
reporter activity, fold (R8 reporter [1]; R8 reporter, IL-1β alone (Fig. 3I)): 1.2 ± 0.3 fold
EMax (Fold ± SE) (R8 reporter [1]; [11]): n.r.
pEC50 (−log[g/ mL] ± SE) (R8 reporter [1]; [11]): n.r.
EMax (Fold ± SE) (R8 reporter [1]; [12]): n.r.
pEC50 (-log[g/ml] ±SE) (R8 reporter [1]; [12]): n.r.
reporter activity, fold of no stimulation ± SD (R8 reporter [1]; R8 reporter, dexamethasone 1 μM, IL-1β 1 ng/mL or both, 6 h (Fig. 3C)): 1.3 ± 0.7 fold
